Source: patent publication US4436742A, “4-Hydroxy-2,1,3-benzthiadiazole compounds and β-adrenergic method of use therefor” (Boehringer Mannheim GmbH, priority 1974, dated 1984)

Legend:
[1] = acute toxicity in mice, intravenous; details: in vivo, mouse, i.v., dosage at which 50% of the mice die
Protocol: 1. The acute toxicity in mice when administered intravenouly was measured and the LD50 (=dosage at which 50% of the mice die) determined.

cardiac β-receptor = experiment: inhibition of isoprenalin tachycardia in wake rabbits (cardiac β-receptor blocking activity); assay type: in vivo, rabbit; details: for Heartbeat Frequency: isoprenalin 1 μg/kg i.v. 30 minutes after infusion, x ± sx; for DE250: i.v., interpolated dosage which limits the frequence increase to 250 beats/min
Protocol: The following tests were carried out to determine the cardiac β-receptor blocking activity of certain test compounds by determining the inhibition of the heart beat frequency increase induced by intravenous administration of isoprenalin.
The β-receptor blocking activity of the test compounds was tested on wake rabbits weighing between 2 to 3.5 kg. and kept in wooden cages. EKG-electrodes were inserted into the hind quarters of the rabbits s.c. (II. lead) and the heart frequency was measured based on 20 heart beats. The test compounds were then infused through a small tube to the ear vein of the rabbits over a period of 15 minutes. 30 minutes after the infusion isoprenalin (3,4-dihydro-α-[(isopropylamino)-methyl]-benzylalcohol) was injected intravenously at 1 μg/kg.

Structure (SMILES) | LD50 [1] [mg/kg] | Heartbeat Frequency (cardiac β-receptor; 1.0 mg/kg i.v.) [beats/min] | Heartbeat Frequency (cardiac β-receptor; 5.0 mg/kg i.v.) [beats/min] | DE250 (cardiac β-receptor) [mg/kg] | Heartbeat Frequency (cardiac β-receptor; 0.01 mg/kg i.v.) [beats/min] | Heartbeat Frequency (cardiac β-receptor; 0.1 mg/kg i.v.) [beats/min] | Heartbeat Frequency (cardiac β-receptor; 0.3 mg/kg i.v.) [beats/min] | Heartbeat Frequency (cardiac β-receptor; 0.5 mg/kg i.v.) [beats/min]
CC(C)NCC(O)COc1ccc2nsnc2c1 (centres unmarked) [Compound A, 5-(3-Isopropylamino-2-hydroxypropoxy)-2,1,3-benzo-thiadiazole, reference compound] | 100 | 290 ± 8 | 246 ± 7 | 5 | – | – | – | –
CC(C)NCC(O)COc1cccc2nsnc12 (centres unmarked) [Compound I, 4-(3-Isopropylamino-2-hydroxy-propyloxy)-2,1,3-benzthiadiazole] | 50 | 220 ± 14 | 210 ± 5 | 0.7 | 324 ± 9 | 297 ± 10 | 266 ± 14 | –
CC(C)(C)NCC(O)COc1cccc2nsnc12 (centres unmarked) [Compound II] | 45 | 215 ± 10 | 220 ± 7 | 0.5 | – | 308 ± 10 | – | 245 ± 6
